Results on 27 compounds are retold here after US8883782B2, “Spiro-tetracyclic ring compounds as beta-secretase modulators and methods of use” (Amgen Inc., priority 2010, dated 2014).

Molecules are shown by their SMILES. Like-named read-outs stand apart in the source and are kept apart here.

In experiment [1] the test system is Aβ40 in conditioned medium of cells stably expressing Amyloid Precursor Protein (APP). The experiment in a line: In vitro BACE cell-based assay (Aβ40 in conditioned medium, sandwich ELISA). As to conditions: Homo sapiens. Put shortly:
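Secreted Aβ40 is captured with pAb40 and detected with biotinylated 6E10, read by europium time-resolved fluorescence. IC50 comes from percent inhibition versus concentration.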
(In general: ELISA stands for enzyme-linked immunosorbent assay.)

Experiment [2] has as its target Beta Secretase enzyme (BACE) (Homo sapiens, UniProt P56817). The experiment in a line: In vitro enzymatic BACE FRET (fluorescence resonance energy transfer) assay. The class given is biochemical. In outline:
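Fluorescence read after Tris quench to neutral pH. Reaction: 50 nM fluorophore/quencher peptide substrate, 1 h, in 0.05 M acetate pH 4.2, 10% DMSO final, 100 uM genapol.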

[3] abbreviates: HEK293, average IC50, HEK cells, read-out: HEK cell assay.
Where [4] appears, read: average IC50, enzyme assay, read-out: BACE 1 FRET assay.
The mark [5] stands for this setting: HEK293, average IC50, read-out: HEK cell assay.

Sequence of Beta Secretase enzyme (BACE) (P56817 46-501, species assumed): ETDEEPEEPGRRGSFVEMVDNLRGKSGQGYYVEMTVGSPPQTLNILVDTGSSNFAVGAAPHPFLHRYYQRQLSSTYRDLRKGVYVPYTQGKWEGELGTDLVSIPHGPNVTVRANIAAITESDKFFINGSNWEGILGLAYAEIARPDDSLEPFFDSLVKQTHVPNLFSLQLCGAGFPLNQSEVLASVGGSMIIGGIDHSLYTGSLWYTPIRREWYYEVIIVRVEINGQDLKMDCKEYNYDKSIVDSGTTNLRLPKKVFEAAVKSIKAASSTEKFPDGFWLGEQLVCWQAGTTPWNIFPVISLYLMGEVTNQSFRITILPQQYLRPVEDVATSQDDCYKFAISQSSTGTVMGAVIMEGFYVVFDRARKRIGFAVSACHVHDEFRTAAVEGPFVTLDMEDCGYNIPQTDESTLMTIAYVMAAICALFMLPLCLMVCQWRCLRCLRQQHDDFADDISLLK

Take `N#Cc1cncc(-c2ccc3c(c2)[C@@]2(COC(N)=N2)c2cc(N4CCOCC4)cc(F)c2O3)c1` [Example 558, 5-((4S)-2-amino-5′-fluoro-7′-(4-morpholinyl)spiro[1,3-oxazole-4,9′-xanthen]-2′-yl)-3-pyridinecarbonitrile]: the IC50 in experiment [1] (setting [3]) was 0.0057 µM; in experiment [2] (setting [4]), 0.0017 µM.

Consider `NC1=N[C@@]2(CO1)c1cc(-c3cncc(C#CCO)c3)ccc1Oc1cnc(C3=CCCOC3)cc12` [Example 827, 3-(5-((5S)-2′-amino-3-(5,6-dihydro-2H-pyran-3-yl)spiro[chromeno[2,3-c]pyridine-5,4′-[1,3]oxazol]-7-yl)-3-pyridinyl)-2-propyn-1-ol], for which the results for the IC50 in experiment [1] (setting [5]) and in experiment [2] (setting [4]) were 0.002 µM and 0.0005 µM, respectively.

Regarding `CC(C)CSc1cnc2c(c1)[C@]1(COC(N)=N1)c1cc(-c3cccnc3)ccc1O2` [Example 184, (5S)-3-((2-methylpropyl)sulfanyl)-7-(3-pyridinyl)spiro[chromeno[2,3-b]pyridine-5,4′-[1,3]oxazol]-2′-amine], the values for the IC50 in experiment [1] (setting [5]) and in experiment [2] (setting [4]) were 0.294 µM and 0.0141 µM, respectively.

As to `COc1ccc2c(c1)[C@@]1(COC(N)=N1)c1cc(C3(O)COC3)cc(F)c1O2` [Example 708, (S)-3-(2-amino-5′-fluoro-2′-methoxy-5H-spiro[oxazole-4,9′-xanthene]-7′-yl)oxetan-3-ol], the results for the IC50 in experiment [1] (setting [3]) and in experiment [2] (setting [4]) were at least 10 µM and 13.3 µM, respectively.

`COc1cc2c(c(F)c1F)Oc1ccc(-c3cccnc3F)cc1[C@@]21COC(N)=N1` [Example 1005, (4S)-3′,4′-difluoro-7′-(2-fluoro-3-pyridinyl)-2′-methoxyspiro[1,3-oxazole-4,9′-xanthen]-2-amine]: the IC50 in experiment [1] (setting [5]) came to 1 µM; in experiment [2] (setting [4]) it was 0.0058 µM.

Take `NC1=N[C@@]2(CO1)c1cc(-c3cccc(Cl)c3)ccc1Oc1ncc(C3=CCCOC3)cc12` [Example 173, (5S)-7-(3-chlorophenyl)-3-(5,6-dihydro-2H-pyran-3-yl)spiro[chromeno[2,3-b]pyridine-5,4′-[1,3]oxazol]-2′-amine]: the IC50 in experiment [1] (setting [5]) amounted to 0.005 µM; in experiment [2] (setting [4]), 0.0006 µM.

For `Cn1cc(-c2cc3c(cc2F)Oc2ccc(-c4cccnc4F)cc2[C@@]32COC(N)=N2)cn1` [Example 311, (4S)-3′-fluoro-7′-(2-fluoro-3-pyridinyl)-2′-(1-methyl-1H-pyrazol-4-yl)spiro[1,3-oxazole-4,9′-xanthen]-2-amine], the IC50 stood at 0.0195 µM in experiment [1] (setting [5]) and 0.0039 µM in experiment [2] (setting [4]).

Regarding `CC(C)(C#N)COc1ccc2c(c1)[C@@]1(COC(N)=N1)c1cc(Br)cc(F)c1O2` [Example 442, 3-(((4S)-2-amino-7′-bromo-5′-fluorospiro[1,3-oxazole-4,9′-xanthen]-2′-yl)oxy)-2,2-dimethylpropanenitrile], the values for the IC50 in experiment [1] (setting [3]) and in experiment [2] (setting [4]) were 1.81 µM and 0.152 µM, respectively.

Turning to `Cn1cc(-c2ccc3c(c2)[C@@]2(COC(N)=N2)c2cc(OCC4(C)COC4)c(F)cc2O3)cn1` [Example 332, (4S)-3′-fluoro-2′-((3-methyl-3-oxetanyl)methoxy)-7′-(1-methyl-1H-pyrazol-4-yl)spiro[1,3-oxazole-4,9′-xanthen]-2-amine], the values for the IC50 in experiment [1] (setting [5]) and in experiment [2] (setting [4]) were 0.49 µM and 0.545 µM, respectively.

Take `CC1(C#Cc2cnc3c(c2)[C@]2(COC(N)=N2)c2cc(O)ccc2O3)COC1` [Example 690, (5S)-2′-amino-3-((3-methyl-3-oxetanyl)ethynyl)spiro[chromeno[2,3-b]pyridine-5,4′-[1,3]oxazol]-7-ol]: the IC50 in experiment [1] (setting [3]) worked out at 2.15 µM; in experiment [2] (setting [4]), 0.346 µM.

For `CC1(C)CC(=O)N(c2cc(F)c3c(c2)[C@]2(COC(N)=N2)c2cc(-c4cccnc4F)ccc2O3)C1` [Example 797, 1-((4S)-2-amino-4′-fluoro-7′-(2-fluoro-3-pyridinyl)spiro[1,3-oxazole-4,9′-xanthen]-2′-yl)-4,4-dimethyl-2-pyrrolidinone], the IC50 amounted to 0.007 µM in experiment [1] (setting [5]) and 0.0006 µM in experiment [2] (setting [4]).

Consider `NC1=N[C@@]2(CS1)c1cc(-c3cccnc3F)ccc1Oc1cnc([C@@H]3CCCOC3)cc12` [Example 931, (5S)-7-(2-fluoro-3-pyridinyl)-3-((3S)-tetrahydro-2H-pyran-3-yl)spiro[chromeno[2,3-c]pyridine-5,4′-[1,3]thiazol]-2′-amine], for which the IC50 was found to be 0.347 µM in experiment [1] (setting [3]) and 0.0216 µM in experiment [2] (setting [4]).

With `COc1ccc2c(c1)[C@@]1(COC(N)=N1)c1cc(C3(F)COC3)cc(F)c1O2` [Example 709, (S)-4′-fluoro-2′-(3-fluorooxetan-3-yl)-7′-methoxy-5H-spiro[oxazole-4,9′-xanthen]-2-amine], the IC50 is at least 10 µM in experiment [1] (setting [3]) and 4.56 µM in experiment [2] (setting [4]).

With `NC1=N[C@@]2(CO1)c1cc(-c3cncc(Cl)c3)ccc1Oc1c(F)cc(C3=CCOCC3)cc12` [Example 210, (4S)-7′-(5-chloro-3-pyridinyl)-2′-(3,6-dihydro-2H-pyran-4-yl)-4′-fluorospiro[1,3-oxazole-4,9′-xanthen]-2-amine], the IC50 in experiment [1] (HEK293, read-out: HEK cell assay (uM), average IC50, HEK cell assay) worked out at 0.003 µM; in experiment [2] (BACE 1 FRET assay (uM)), 0.0003 µM.

On to `NC1=N[C@@]2(CO1)c1cc(-c3cncc(F)c3)ccc1Oc1ncc(C3=CCOCC3)cc12` [Example 457, (5S)-3-(3,6-dihydro-2H-pyran-4-yl)-7-(5-fluoro-3-pyridinyl)spiro[chromeno[2,3-b]pyridine-5,4′-[1,3]oxazol]-2′-amine], for which the IC50 in experiment [1] (setting [3]) stood at 0.0066 µM; in experiment [2] (setting [4]), 0.0015 µM.

Take `Cc1cnc(F)c(-c2ccc3c(c2)[C@@]2(COC(N)=N2)c2cc(N4CCC(F)(F)C4)ncc2O3)c1` [Example 421, (5S)-3-(3,3-difluoro-1-pyrrolidinyl)-7-(2-fluoro-5-methyl-3-pyridinyl)spiro[chromeno[2,3-c]pyridine-5,4′-[1,3]oxazol]-2′-amine]: the values for the IC50 in experiment [1] (setting [3]) and in experiment [2] (setting [4]) were 0.0053 µM and 0.0005 µM, respectively.

As to `Cc1ncc(-c2cc(F)c3c(c2)[C@]2(COC(N)=N2)c2cc(-c4ccc(F)nc4)ccc2O3)cn1` [Example 649, (4S)-4′-fluoro-7′-(6-fluoro-3-pyridinyl)-2′-(2-methyl-5-pyrimidinyl)spiro[1,3-oxazole-4,9′-xanthen]-2-amine], the IC50 in experiment [1] (setting [3]) came to 0.118 µM; in experiment [2] (setting [4]), 0.0198 µM.

Regarding `NC1=N[C@@]2(CS1)c1cc(-c3cccnc3F)ccc1Oc1c(F)cc(-c3ccncc3)cc12` [Example 1068, (4S)-4′-fluoro-7′-(2-fluoro-3-pyridinyl)-2′-(4-pyridinyl)spiro[1,3-thiazole-4,9′-xanthen]-2-amine], the results for the IC50 in experiment [1] (setting [5]) and in experiment [2] (setting [4]) were 0.062 µM and 0.0023 µM, respectively.

Turning to `CC1(C)CC(c2cnc3c(c2)[C@@]2(COC(N)=N2)c2c(ccc(-c4cncnc4)c2F)O3)=CCO1` [Example 355, (5S)-3-(2,2-dimethyl-3,6-dihydro-2H-pyran-4-yl)-6-fluoro-7-(5-pyrimidinyl)spiro[chromeno[2,3-b]pyridine-5,4′-[1,3]oxazol]-2′-amine], the values for the IC50 in experiment [1] (setting [5]) and in experiment [2] (setting [4]) were 1.28 µM and 0.407 µM, respectively.

`NC1=N[C@@]2(CO1)c1cc(-c3ccccc3)ccc1Oc1cnc(-c3ccccc3)cc12` [Example 142, (5S)-3,7-diphenylspiro[chromeno[2,3-c]pyridine-5,4′-[1,3]oxazol]-2′-amine]: the IC50 in experiment [1] (setting [5]) is 0.532 µM; in experiment [2] (setting [4]), 0.0158 µM.

On to `CC1(C)C[C@H](c2cc3c(cn2)Oc2ccc(-c4cncnc4)cc2[C@@]32COC(N)=N2)CCO1` [Example 544, (5S)-3-((4R)-2,2-dimethyltetrahydro-2H-pyran-4-yl)-7-(5-pyrimidinyl)spiro[chromeno[2,3-c]pyridine-5,4′-[1,3]oxazol]-2′-amine], for which the IC50 in experiment [1] (setting [3]) was 0.121 µM; in experiment [2] (setting [4]), 0.0084 µM.

Turning to `NC1=N[C@@]2(CO1)c1cc(-c3cccnc3F)ccc1Oc1c(F)cc(-c3cncnc3)cc12` [Example 214, (4S)-4′-fluoro-7′-(2-fluoro-3-pyridinyl)-2′-(5-pyrimidinyl)spiro[1,3-oxazole-4,9′-xanthen]-2-amine], the results for the IC50 in experiment [1] (setting [5]) and in experiment [2] (setting [4]) were 0.0187 µM and 0.0028 µM, respectively.

Turning to `NC1=N[C@@]2(CO1)c1cc(-c3cccnc3F)ccc1Oc1c(F)cc(C3=CC(=O)OC3)cc12` [Example 801, 4-((4S)-2-amino-4′-fluoro-7′-(2-fluoro-3-pyridinyl)spiro[1,3-oxazole-4,9′-xanthen]-2′-yl)-2(5H)-furanone], the IC50 in experiment [1] (setting [5]) was 0.17 µM; in experiment [2] (setting [4]), 0.0022 µM.

In the case of `CC#Cc1cnc(F)c(-c2ccc3c(c2)[C@@]2(COC(N)=N2)c2cc(C4=CCOCC4)cnc2O3)c1` [Example 953, (5S)-3-(3,6-dihydro-2H-pyran-4-yl)-7-(2-fluoro-5-(1-propyn-1-yl)-3-pyridinyl)spiro[chromeno[2,3-b]pyridine-5,4′-[1,3]oxazol]-2′-amine], the IC50 in experiment [1] (setting [3]) came out at 0.004 µM; in experiment [2] (setting [4]), 0.0003 µM.

As to `NC1=N[C@]2(CO1)c1cc(C3=CCCOC3)ccc1Oc1cc(F)c(-c3cncnc3)cc12` [Example 514, (4R)-7′-(5,6-dihydro-2H-pyran-3-yl)-3′-fluoro-2′-(5-pyrimidinyl)spiro[1,3-oxazole-4,9′-xanthen]-2-amine], the values for the IC50 in experiment [1] (setting [3]) and in experiment [2] (setting [4]) were 0.0114 µM and 0.0026 µM, respectively.

`Cc1ccc(-c2cnc3c(c2)[C@]2(CSC(N)=N2)c2cc(-c4cnccc4F)ccc2O3)cn1` [Example 766, (5S)-7-(4-fluoro-3-pyridinyl)-3-(6-methyl-3-pyridinyl)spiro[chromeno[2,3-b]pyridine-5,4′-[1,3]thiazol]-2′-amine]: the values for the IC50 in experiment [1] (setting [5]) and in experiment [2] (setting [4]) were 0.01 µM and 0.0012 µM, respectively.

As for `CC1(COc2cc(F)c3c(c2)[C@]2(COC(N)=N2)c2cc(-c4cncc(F)c4)ccc2O3)COC1` [Example 273, (4S)-4′-fluoro-7′-(5-fluoro-3-pyridinyl)-2′-((3-methyl-3-oxetanyl)methoxy)spiro[1,3-oxazole-4,9′-xanthen]-2-amine], the IC50 in experiment [1] (setting [5]) amounted to 0.0031 µM; in experiment [2] (setting [4]), 0.0007 µM.
